Reference: ChEMBL document CHEMBL1201862, “PubChem BioAssay data set” (2004)
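Following 48 hours of exposure in 96-well plates, responses at five concentrations were used to interpolate endpoints linearly. Abbreviation: GI50, concentration required for 50% inhibition of growth.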 The source made the active and inactive calls. No stated cut-off is given here; in the data, active = GI50 up to about 1.1 µM and inactive = higher.

Assays:
Experiment in all cases: inhibition of tumour cell growth, NCI panel, 48 h
DMS-273 = system: DMS-273
M19-MEL = system: M19-MEL
DLD-1 = system: DLD-1
KM-20L2 = system: KM-20L2
SNB-78 = system: SNB-78
HOP-18 = system: HOP-18
DMS-114 = system: DMS-114
XF498 = system: XF498
RXF 631 = system: RXF 631

SMILES	GI50 (DMS-273)	GI50 (M19-MEL)	GI50 (DLD-1)	GI50 (KM-20L2)	GI50 (SNB-78)	GI50 (HOP-18)	GI50 (DMS-114)	GI50 (XF498)	GI50 (RXF 631)
CC(=O)OCc1cc2c(s1)C(=O)c1sccc1C2=O	0.155 µM (active)	< 0.01 µM (active)	0.187 µM (active)	2.24 µM (inactive)	13.2 µM (inactive)	0.145 µM (active)	0.149 µM (active)		
Cc1c(C(=O)/C=C/c2ccccc2O)c(=O)n(-c2ccccc2)n1C	22.2 µM (inactive)	23.9 µM (inactive)	14.3 µM (inactive)	31.6 µM (inactive)	39.4 µM (inactive)		24.6 µM (inactive)	19.1 µM (inactive)	
O=C1C2CCN(CC2)C1CN1CCOCC1 (stereo not given)	11.8 µM (inactive)	13.4 µM (inactive)	1.65 µM (inactive)	18.2 µM (inactive)	20.7 µM (inactive)	7.59 µM (inactive)		5.05 µM (inactive)	16.9 µM (inactive)
S=C(Nc1ccccc1)Nc1ccccc1SC(/C=C/NNC1=NN=C(c2ccccc2)C(c2ccccc2)N1)c1ccccc1 (stereo not given)	> 100 µM (inactive)	> 100 µM (inactive)	79.8 µM (inactive)	> 100 µM (inactive)	> 100 µM (inactive)		12.2 µM (inactive)	> 100 µM (inactive)	> 100 µM (inactive)
COc1cc2c(c(OC)c1OC)-c1ccc(SC)c(=O)cc1C(CC(=O)Oc1ccc(F)cc1)C2 (stereo not given)	0.193 µM (active)	0.236 µM (active)	0.288 µM (active)	0.124 µM (active)	0.142 µM (active)	0.53 µM (active)	0.26 µM (active)	0.318 µM (active)	
CCc1cc(CCC(=O)Nc2c(C)cccc2C)n[nH]1	> 100 µM (inactive)	> 100 µM (inactive)	> 100 µM (inactive)	> 100 µM (inactive)	> 100 µM (inactive)	> 100 µM (inactive)		> 100 µM (inactive)	> 100 µM (inactive)
CCOC1=C2C(=O)OC(=O)C2C2CCCCC2=C1 (stereo not given)	> 100 µM (inactive)	> 100 µM (inactive)	> 100 µM (inactive)		> 100 µM (inactive)		> 100 µM (inactive)	> 100 µM (inactive)	
Cc1ccc(-c2nc3c(C(=O)NCCN(C)C)cccc3[nH]2)cc1	9.06 µM (inactive)	16.2 µM (inactive)	13.5 µM (inactive)		20.2 µM (inactive)	15.3 µM (inactive)	13.3 µM (inactive)		4.89 µM (inactive)
O=C(N/C(=C\c1ccc(/C=C(\NC(=O)c2ccccc2)c2nc3cc(Cl)ccc3[nH]2)cc1)c1nc2cc(Cl)ccc2[nH]1)c1ccccc1	13.8 µM (inactive)	32.2 µM (inactive)	27.7 µM (inactive)	18 µM (inactive)	> 100 µM (inactive)	8.91 µM (inactive)	22.9 µM (inactive)	35.1 µM (inactive)	
COC(=O)c1ccccc1NCc1cc(O)ccc1O	51.5 µM (inactive)	17.5 µM (inactive)	20.2 µM (inactive)	> 100 µM (inactive)	20.3 µM (inactive)	14.5 µM (inactive)		17.1 µM (inactive)	
COc1cc2c(cc1OC)[Se]c1cc(OC)c(OC)cc1[Se]2	38.1 µM (inactive)	> 10 µM (inactive)	> 10 µM (inactive)	> 10 µM (inactive)	> 10 µM (inactive)	16.6 µM (inactive)	5.61 µM (inactive)	> 10 µM (inactive)	
COc1c(O)c2c3c(cc(C)cc3c1C(C)C)OC2	> 100 µM (inactive)	> 100 µM (inactive)	> 100 µM (inactive)	> 100 µM (inactive)	> 100 µM (inactive)	> 100 µM (inactive)		> 100 µM (inactive)	
O=C(CSc1nnc[nH]1)C[P+](c1ccccc1)(c1ccccc1)c1ccccc1	> 100 µM (inactive)	> 100 µM (inactive)	> 100 µM (inactive)	> 100 µM (inactive)	> 100 µM (inactive)		97.1 µM (inactive)	85.1 µM (inactive)	
COC(=O)[C@@]12C(=O)C=CC(=O)C1C1C(=CC2C)OC2OC3(CCCCC3)OC21 (stereo not given in full)	19 µM (inactive)	19.2 µM (inactive)	18.5 µM (inactive)	20.5 µM (inactive)	20.6 µM (inactive)	20.2 µM (inactive)	15.7 µM (inactive)		
C/C(=N\NC(=O)c1ccccc1O)c1cccc(/C(C)=N/NC(=O)c2ccccc2O)n1							2.66 µM (inactive)	18.6 µM (inactive)	
